Test results as given in PubChem BioAssay (NCI).
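Five concentrations, 48 hours, 96-well plates. The concentration for full growth arrest is given as TGI.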 Where a SMILES comes first, the peptide text is derived from it. The star is where a group is joined. Boc = CC(C)(C)OC(=O)*; OBn = c1ccc(CO*)cc1

How the values were obtained:
Assay in all cases: growth of human tumour cells (NCI), 48 h
[1] = test system: SR leukemia
[2] = test system: U251 CNS
[3] = test system: NCI-H522 lung
[4] = test system: COLO 205 colon
[5] = test system: IGROV1 ovarian
[6] = test system: OVCAR-5 ovarian
[7] = test system: DU-145 prostate
[8] = test system: KM12 colon
[9] = test system: SK-MEL-28 melanoma
[10] = test system: RXF 393 renal

Row | SMILES | TGI [1] [µM] | TGI [2] [µM] | TGI [3] [µM] | TGI [4] [µM] | TGI [5] [µM] | TGI [6] [µM] | TGI [7] [µM] | TGI [8] [µM] | TGI [9] [µM] | TGI [10] [µM]
1 | O=C1C(Br)=CC2(C=C1Br)CCNC1=C2C(=O)c2cccnc2C1=O | 18.5 | 35.6 | 13.9 | 30.1 | 21.8 | 33.1 | 23.5 | 35.8 | 29.3 | 21.3
2 | O=C1/C(=C/c2ccccc2[N+](=O)[O-])N=C(c2ccccc2)N1C1Nc2cc3c(cc2S1)NC(N1C(=O)/C(=C/c2ccccc2[N+](=O)[O-])N=C1c1ccccc1)S3 (centres undefined) | 90.3 | > 100 | 77.9 | – | > 100 | > 100 | > 100 | > 100 | > 100 | > 100
3 | O=[N+]([O-])c1ccc(N=Nc2c(O)c(S(=O)(=O)O)cc3cc(S(=O)(=O)O)ccc23)cc1 | > 100 | > 100 | > 100 | > 100 | > 100 | > 100 | > 100 | – | > 100 | –
4 | CCOC(=O)CNC(=O)C(C)NC(=O)C(NC(=O)CC(c1ncc[nH]1)c1ncc[nH]1)C(C)CC (centres undefined) | > 100 | > 100 | > 100 | > 100 | > 100 | > 100 | > 100 | > 100 | > 100 | –
5 | Cc1nc2ccc(S(=O)(=O)O)cc2c(=O)n1-c1ccc(C(=O)NN2C(=O)C(Cl)C2c2ccccc2O)cc1 (centres undefined) | > 100 | > 100 | > 100 | > 100 | > 100 | > 100 | > 100 | > 100 | > 100 | > 100
6 | C1CCC(OC2CSC2)OC1 (centres undefined) | > 100 | > 100 | > 100 | > 100 | – | – | > 100 | > 100 | > 100 | > 100
7 | N#Cc1c(N2CCCC2)ncn(Cc2ccccc2)c1=O | > 100 | > 100 | > 100 | > 100 | > 100 | > 100 | > 100 | > 100 | > 100 | > 100
8 | CC(NC(=O)C(NC(=O)OC(C)(C)C)C(C)C)C(=O)N1CCCC1C(=O)NCC(=O)NC(C(=O)NCC(=O)OCc1ccccc1)C(C)C (centres undefined) (Boc-VAPGVG-OBn; configuration not given here) | > 100 | > 100 | > 100 | > 100 | > 100 | > 100 | > 100 | – | > 100 | –
9 | CC(C)c1ccc(/C=C2\CSCC3=C2NC(=S)NC3c2ccc(C(C)C)cc2)cc1 (centres undefined) | > 100 | > 100 | > 100 | > 100 | > 100 | > 100 | > 100 | > 100 | > 100 | > 100
10 | COc1ccc(N=N/C(=N/NC(=O)c2ccccc2)c2ccc(N(CCC#N)CCC#N)cc2C)cc1 | > 100 | > 100 | 36.1 | > 100 | > 100 | > 100 | > 100 | > 100 | – | > 100
11 | O=C(CCCCCCCCC(=O)N1C(=O)CC(=O)N(c2cccc(Cl)c2)C1=S)N1C(=O)CC(=O)N(c2cccc(Cl)c2)C1=S | 67.8 | > 100 | 71.1 | > 100 | – | > 100 | > 100 | > 100 | – | > 100
12 | CCOc1nc(-c2ccccc2)cc(-c2ccc(N3CCOCC3)cc2)c1C#N | > 100 | > 100 | > 100 | > 100 | > 100 | > 100 | > 100 | > 100 | > 100 | > 100
13 | O=C1COc2ccc([N+](=O)[O-])cc2C(=O)C1 | > 10 | > 10 | – | > 10 | > 10 | > 10 | > 10 | > 10 | > 10 | > 10
14 | O=C(OCc1ccccc1)C1(N2CN(C3(C(=O)OCc4ccccc4)CCCC3)CN(C3(C(=O)OCc4ccccc4)CCCC3)C2)CCCC1 | > 10 | > 10 | > 10 | > 10 | > 10 | > 10 | > 10 | > 10 | > 10 | > 10
15 | CCOC(=O)/C=C(/C(=O)OCC)n1cc(C)c(=O)n(Cc2cn(COCCOC(C)=O)nn2)c1=O | > 94.9 | > 73.8 | 6.9 | > 55.2 | 32.1 | 65 | > 90.2 | > 62.9 | 57.1 | > 70
16 | COc1cc(CC2c3cc(OC)c(OC)cc3CCN2C)c(Oc2cc3c(cc2OC)-c2c(O)c(OC)cc4c2C(C3)N(C)CC4)cc1OC (centres undefined) | 17.5 | > 100 | 39.3 | 42.5 | 45.1 | > 100 | > 100 | 31.3 | 63.2 | 9.35
17 | Cc1[nH]c2ccccc2c1C=Nc1ccc(N=Cc2c(C)[nH]c3ccccc23)cc1 | 46.9 | > 100 | 41.9 | 27.3 | > 100 | > 100 | > 100 | 32.3 | > 100 | > 100
18 | C=CCNC(=O)NC1=CSC2=NC(=O)C3(NN12)c1ccccc1-c1ccccc13 | > 10 | – | > 10 | > 10 | > 10 | > 10 | > 10 | > 10 | > 10 | > 10
19 | O=C1c2c(nc3ccccc3c2-c2ccccc2)CN1Nc1ccccn1 | > 100 | > 100 | > 100 | > 100 | > 100 | > 100 | > 100 | > 100 | > 100 | > 100
20 | COC(=O)c1cc(C#N)[nH]c1-c1ccc(C)s1 | > 100 | > 100 | 89.7 | > 100 | – | > 100 | > 100 | > 100 | > 100 | 46.7
21 | COc1ccc(-c2c(N)n(-c3cccc(C(=O)O)c3)c(=O)c3cc([N+](=O)[O-])ccc23)cc1 | > 100 | > 100 | > 100 | – | > 100 | > 100 | > 100 | > 100 | > 100 | > 100
22 | [N-]=[N+]=NCc1cccc(Nc2cc(=O)[nH]c(=O)[nH]2)c1 | > 100 | – | > 100 | > 100 | > 100 | > 100 | > 100 | > 100 | > 100 | > 100
